Where two headings read alike, the source gives them in different places.
System: HBV rcDNA in HepDE19 cells
Test: HepDE19 assay with bDNA quantitation of HBV rcDNA
Type: cell-based, hepatitis B virus (HBV)
Details: inhibition of rcDNA formation in HepDE19 cells (HepG2 derived), Tet-free medium, 7 day incubation, Quantigene 2.0 bDNA readout, top concentration 25 μM, read-out: DE-19bDNA EC50
Summary of the method: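 Cytotoxicity run on replicate plates (5,000 cells/well, 4 days, ATP luminescence, CC50), while antiviral plates (50,000 cells/well) received compound for 7 days after tetracycline withdrawal to induce HBV replication. Top dose 25 μM, 8 points, 0.5% DMSO; rcDNA by branched-DNA assay, % inhibition fitted (4-parameter) for EC50 and EC90.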

| SMILES | EC50 [µM] | EC50 (Hepatitis B virus, HepDE19, 168 h) [µM] |
| --- | --- | --- |
| CC(=O)N1Cc2[nH]c(=O)c3cc(F)ccc3c2C(N(C)C(=O)Nc2ccc(F)c(C#N)c2)C1 (single isomer, unassigned) [Compound 165, 1-(3-Acetyl-8-fluoro-6-oxo-1,2,3,4,5,6-hexahydrobenzo[c][1,7]naphthyridin-1-yl)-3-(3-cyano-4-fluorophenyl)-1-methylurea] | ≥ 25 | – |
| CC(=O)N1Cc2[nH]c(=O)c3cc(F)ccc3c2C(N(C)C(=O)Nc2ccc(F)c(C#N)c2)C1 (single isomer, unassigned) [Compound 166, 1-(3-Acetyl-8-fluoro-6-oxo-1,2,3,4,5,6-hexahydrobenzo[c][1,7]naphthyridin-1-yl)-3-(3-cyano-4-fluorophenyl)-1-methylurea] | 11 | – |
| CN1Cc2[nH]c(=O)c3cc(F)c(F)cc3c2C(N(C)C(=O)Nc2ccc(F)c(Cl)c2)C1 (single isomer, unassigned) [Compound 167, 3-(3-Chloro-4-fluorophenyl)-1-(8,9-difluoro-3-methyl-6-oxo-1,2,3,4,5,6-hexahydrobenzo[c][1,7]naphthyridin-1-yl)-1-methylurea] | 7.6 | – |
| CN1Cc2[nH]c(=O)c3cc(F)c(F)cc3c2C(N(C)C(=O)Nc2ccc(F)c(Cl)c2)C1 (single isomer, unassigned) [Compound 168, 3-(3-Chloro-4-fluorophenyl)-1-(8,9-difluoro-3-methyl-6-oxo-1,2,3,4,5,6-hexahydrobenzo[c][1,7]naphthyridin-1-yl)-1-methylurea] | 0.18 | – |
| CN(C(=O)Nc1ccc(F)c(Cl)c1)C1CN(CCO)Cc2[nH]c(=O)c3cc(F)ccc3c21 (single isomer, unassigned) [Compound 169, 3-(3-Chloro-4-fluorophenyl)-1-(8-fluoro-3-(2-hydroxyethyl)-6-oxo-1,2,3,4,5,6-hexahydrobenzo[c][1,7]naphthyridin-1-yl)-1-methylurea] | 6.6 | – |
| CN(C(=O)Nc1ccc(F)c(Cl)c1)C1CN(CCO)Cc2[nH]c(=O)c3cc(F)ccc3c21 (single isomer, unassigned) [Compound 170, 3-(3-Chloro-4-fluorophenyl)-1-(8-fluoro-3-(2-hydroxyethyl)-6-oxo-1,2,3,4,5,6-hexahydrobenzo[c][1,7]naphthyridin-1-yl)-1-methylurea] | 3.1 | – |
| CN(C(=O)Nc1ccc(F)c(C#N)c1)C1CN(CCO)Cc2[nH]c(=O)c3cc(F)ccc3c21 (single isomer, unassigned) [Compound 171, 3-(3-Cyano-4-fluorophenyl)-1-(8-fluoro-3-(2-hydroxyethyl)-6-oxo-1,2,3,4,5,6-hexahydrobenzo[c][1,7]naphthyridin-1-yl)-1-methylurea] | 23 | – |
| CN(C(=O)Nc1ccc(F)c(C#N)c1)C1CN(CCO)Cc2[nH]c(=O)c3cc(F)ccc3c21 (single isomer, unassigned) [Compound 172, 3-(3-Cyano-4-fluorophenyl)-1-(8-fluoro-3-(2-hydroxyethyl)-6-oxo-1,2,3,4,5,6-hexahydrobenzo[c][1,7]naphthyridin-1-yl)-1-methylurea] | 10 | – |
| CN1Cc2[nH]c(=O)c3cc(F)c(F)cc3c2C(N(C)C(=O)Nc2ccc(F)c(C#N)c2)C1 (single isomer, unassigned) [Compound 174, 3-(3-Cyano-4-fluorophenyl)-1-(8,9-difluoro-3-methyl-6-oxo-1,2,3,4,5,6-hexahydrobenzo[c][1,7]naphthyridin-1-yl)-1-methylurea] | – | 0.31 |
| CN(C(=O)Nc1ccc(F)c(C#N)c1)C1CNCc2[nH]c(=O)c3cc(F)c(F)cc3c21 (single isomer, unassigned) [Compound 175, 3-(3-Cyano-4-fluorophenyl)-1-(8,9-difluoro-6-oxo-1,2,3,4,5,6-hexahydrobenzo[c][1,7]naphthyridin-1-yl)-1-methylurea] | 1.5 | – |
| CN(C(=O)Nc1ccc(F)c(C#N)c1)C1CNCc2[nH]c(=O)c3cc(F)c(F)cc3c21 (single isomer, unassigned) [Compound 176, 3-(3-Cyano-4-fluorophenyl)-1-(8,9-difluoro-6-oxo-1,2,3,4,5,6-hexahydrobenzo[c][1,7]naphthyridin-1-yl)-1-methylurea] | 0.05 | – |
